The subject of one test is leucocytes. As to the kind of experiment: Inhibition of the migration of leucocytes after local administration by a sponge soaked in active compound under the dorsal skin of rats. The note with it: 10 mg/rat. It is filed as in vivo. An excerpt:
The sulphenamides according to the present invention are also active in vivo. […] The following Table 2 summarises the activities of some illustrative sulphenamides after local administration, by introduction of a piece of sponge soaked in the active compound under the dorsal skin of rats.

In test [1] the test system is lipoxygenase; cyclooxygenase. The note with it: in words; one statement for all four named inhibitors; cited from earlier work.
The next test has as its target T1, platelet lipoxygenase (Homo sapiens, UniProt P18054).
T1 construct: metabolism of radioactively labelled arachidonic acid by washed human platelets; endogenous in cells; host or cells: washed human platelets
T1 sequence (P18054 1-663): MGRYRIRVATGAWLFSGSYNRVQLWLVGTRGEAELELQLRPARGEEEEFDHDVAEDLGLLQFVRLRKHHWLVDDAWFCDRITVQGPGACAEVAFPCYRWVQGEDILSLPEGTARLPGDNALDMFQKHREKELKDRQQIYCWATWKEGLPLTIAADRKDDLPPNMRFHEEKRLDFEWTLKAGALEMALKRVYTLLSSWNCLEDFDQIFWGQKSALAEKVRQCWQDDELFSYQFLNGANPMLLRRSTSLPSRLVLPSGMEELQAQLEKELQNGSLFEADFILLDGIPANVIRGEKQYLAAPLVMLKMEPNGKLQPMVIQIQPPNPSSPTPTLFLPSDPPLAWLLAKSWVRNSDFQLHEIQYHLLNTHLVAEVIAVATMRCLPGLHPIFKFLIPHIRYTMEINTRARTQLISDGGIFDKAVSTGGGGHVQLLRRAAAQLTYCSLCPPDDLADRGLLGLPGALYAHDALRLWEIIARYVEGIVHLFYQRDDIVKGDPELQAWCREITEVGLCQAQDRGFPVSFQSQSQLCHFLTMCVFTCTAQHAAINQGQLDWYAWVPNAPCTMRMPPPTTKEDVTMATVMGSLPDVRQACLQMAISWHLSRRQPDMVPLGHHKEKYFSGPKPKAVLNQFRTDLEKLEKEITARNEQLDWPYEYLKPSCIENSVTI
As to the kind of experiment: Inhibition of the platelet lipoxygenase (synthesis of HETE), metabolism of radioactively labelled arachidonic acid by washed human platelets. The class given is cell-based. The note with it: in vitro. As for the experimental part:
Use is made in this test method of the metabolism of radioactively labelled arachidonic acid by washed human platelets. In this in vitro test, the radioactively labelled metabolites are extracted from the reaction mixture and separated by thin layer chromatography. The autoradiogram is evaluated on a thin layer scanner. Under these test conditions, the labelled metabolites are separated from the unreacted arachidonic acid and are subsequently quantitatively evaluated. The distribution of the radioactivity in the cyclooxygenase products, formed during metabolism, thromboxane B2 (TXB2) and 12-hydroxy-5,8,10-heptadecatrienoic acid (HHT) and the lipoxygenase product 12-hydroxy-5,8,11,14-eicosatetraenoic acid (HETE), as influenced by the inhibitors, gives a measure of the inhibition of the enzymes.
The inhibition of lipoxygenase by the sulphenamides according to the invention can be measured by the inhibition of the synthesis of HETE.

For `CC(C)(C)c1ccc(SN2CCOC2=O)cc1` [Example 5, 3-(4-tert.-butylphenylthio)-oxazolidin-2-one], the “Inhibition of the migration of leucocytes (control = 0%)” value (from here on “Inhibition … (control = 0%)”) with leucocytes is reported as 72%. For `CCCCCC=CCC=CCC=CCC=CCCCC(=O)O` [5,8,11,14-eicosatetraenoic acid], in test [1], the “Selectivity/potency of known inhibitors of lipoxygenase” value is “either simultaneously inhibitors of cyclooxygenase or only active at very high concentrations”. `O=C1CCN(c2ccccc2)N1` [phenidone]: the “Selectivity/potency of known inhibitors of lipoxygenase” value in test [1] is recorded as “either simultaneously inhibitors of cyclooxygenase or only active at very high concentrations”.

On to `CC(Cc1ccc(O)c(O)c1)C(C)Cc1ccc(O)c(O)c1` (stereo not drawn) [nordihydroguaiaretic acid], for which, in test [1], the “Selectivity/potency of known inhibitors of lipoxygenase” value is listed as “either simultaneously inhibitors of cyclooxygenase or only active at very high concentrations”. In the case of `O=C1OCCN1Sc1ccc(Cl)cc1` [Example 4, 3-(4-chlorophenylthio)-oxazolidin-2-one], the “Minimum effective inhibitory concentration (at least 50% inhibition), inhibition of the platelet lipoxygenase (synthesis of HETE)” value on platelet lipoxygenase is listed as 10^-7 g/ml. Further, the “Inhibition … (control = 0%)” value in the test on leucocytes was 80%. Consider `O=c1scc(-c2ccccc2)n1Sc1ccc(Cl)cc1` [Example 10, 3-(4-chlorophenylthio)-4-phenylthiazolin-2-one], for which the “Inhibition … (control = 0%)” value in the test with leucocytes is 53%. For `O=C1OCCN1Sc1ccccc1` [Example 2, 3-phenylthio-oxazolidin-2-one], the “Minimum effective inhibitory concentration (at least 50% inhibition), inhibition of the platelet lipoxygenase (synthesis of HETE)” value on platelet lipoxygenase is listed as 10^-6 g/ml. The “Inhibition … (control = 0%)” value in the test on leucocytes was determined as 55%.

The values above are taken from patent US4451475A, “Cyclic sulphenamide compounds, their production and their medicinal use” (Bayer Aktiengesellschaft, priority 1981, dated 1984).
